Our source for the TGI and GI50 values is PubChem BioAssay (NCI).

Common to all, as to experiment: NCI tumour cell line growth inhibition, 48 h
For experiment [1], the system named is SK-OV-3 ovarian.
For experiment [2], the system named is RXF 393 renal.
Experiment [3] concerns EKVX NSCLC.
Experiment [4] has as its system SF-539 CNS.
The subject of experiment [5] is MDA-MB-231 breast.
The subject of experiment [6] is SNB-75 CNS.
Experiment [7] concerns UO-31 renal.
For experiment [8], the system named is MDA-MB-435.
Experiment [9] concerns T-47D breast.

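Growth conditions: 96-well plates. Treatment: test compound, 48 hours, 5 concentrations. Analysis: linear interpolation between bracketing concentrations; unreached endpoints set to highest concentration. Abbreviation: GI50, concentration required for 50% inhibition of growth. TGI: concentration producing complete growth inhibition.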

For `O=C(OCCN1CCCCC1)C(c1ccccc1)C1(O)CCSCC1` (stereo not drawn), the TGI in experiment [1], in experiment [2], in [3], in experiment [4], in [5] and in experiment [6] was greater than 100 µM each time. The TGI in experiment [7], in experiment [8] and in experiment [9] was greater than 100 µM throughout.

For `CCOC(=O)CCc1c(C(=O)OCC)[nH]c(/C=C2\NC(=O)C(C)=C2CC)c1C`, the TGI was 48.3 µM in [1]; 49 µM in [2]; 50.3 µM in experiment [3]; 69.6 µM in [4]; 52.6 µM in [5]; 27.8 µM in experiment [6]. For the same compound, the results for the TGI in experiment [7], in experiment [8] and in experiment [9] were greater than 100 µM, greater than 100 µM and 26 µM, respectively.

With `O=C(Nc1c(Cl)cc([N+](=O)[O-])cc1Cl)C(=O)C1C(=O)NC(=S)NC1=O`, the TGI in experiment [1], in experiment [2], in experiment [3], in experiment [4], in experiment [5] and in experiment [6] was greater than 100 µM each time. The TGI in [7], in experiment [8] and in experiment [9] was greater than 100 µM throughout.

On to `Cc1cccc2nc3cccc(C(=O)NCCC[N+](C)(CCCNC(=O)c4cccc5nc6cccc(C)c6nc45)Cc4c([N+](=O)[O-])ncn4C)c3nc12`, for which the GI50 was greater than 1100 µM in [1]; 339 µM in [2]; 443 µM in [3]; 1.59 µM in experiment [4]; greater than 1100 µM in experiment [5]; 48.7 µM in [7]. Besides, the GI50 in experiment [8] was 191 µM. The TGI in experiment [1] is greater than 1100 µM; in experiment [2], greater than 1100 µM; in experiment [3], greater than 1100 µM; in experiment [4], 9.07 µM; in experiment [5], greater than 1100 µM; in experiment [6], greater than 1100 µM. Besides, the TGI in experiment [7], in [8] and in [9] was greater than 1100 µM in each case.

For `S=C1C(=Nc2ccccc2)N(c2ccccc2)/C(=N\c2ccccn2)N1c1ccccc1`, the TGI was found to be 36 µM in experiment [1]; 22.4 µM in experiment [2]; 29.1 µM in [3]; 20.9 µM in experiment [4]; 31.6 µM in experiment [5]; 28.3 µM in [6]. Besides, the TGI in [7] was found to be 26.1 µM; in experiment [8], 28.5 µM; in [9] it was 41.5 µM.

Turning to `O=C(/C=C/c1ccc(-c2ccccc2)cc1)NCc1ccc(C(=O)NCCc2c[nH]c3ccccc23)cc1`, the TGI in [1] was 35.2 µM; in [2] it was greater than 100 µM; in experiment [3], 94.8 µM; in experiment [4], greater than 100 µM; in experiment [5], 42.1 µM; in [6], 42.8 µM. Moreover, the TGI in [7], in experiment [8] and in [9] was greater than 100 µM in each case.

As for `C=CCN(c1cc(OCc2ccccc2)c(NC(C)=O)cc1[N+](=O)[O-])S(C)(=O)=O`, the TGI in experiment [1] was found to be 38.7 µM; in experiment [2], 40.3 µM; in experiment [3], 33.8 µM; in [4], 31.8 µM; in experiment [5] it was 29.5 µM; in experiment [6], 43.6 µM. In addition, the TGI in experiment [7], in experiment [8] and in experiment [9] was greater than 100 µM each time.

With `O=C1OC2(C(F)(F)F)Oc3ccccc3CN2C12CCCCC2` (stereo not drawn), the TGI is 81.7 µM in experiment [1]; 48.9 µM in experiment [2]; greater than 100 µM in experiment [3]; greater than 100 µM in experiment [4]; 59.5 µM in experiment [5]; 59.1 µM in [6]. The TGI in experiment [7] is 84.3 µM; in experiment [8] it was greater than 100 µM; in experiment [9] it was greater than 100 µM.

With `COCN1CCN=c2c1c1c3c(c4ccccc4n23)CCC1`, the TGI in experiment [1], in experiment [2], in experiment [3], in experiment [4], in [5] and in [6] was greater than 100 µM throughout. In addition, the TGI in [7], in experiment [8] and in experiment [9] was greater than 100 µM throughout.

Regarding `O=C(CN1CCCCC1)c1ccc2c(c1)Sc1ccccc1O2`, the TGI was found to be 29.6 µM in experiment [1]; 21 µM in experiment [2]; 36.1 µM in experiment [3]; 30.6 µM in [4]; 37.2 µM in [5]; 24.2 µM in experiment [6]. The TGI turned out to be 22.9 µM in experiment [7], 33.9 µM in [8] and 47.9 µM in experiment [9].

Regarding `N#Cc1c(N2CCCC2)ncn(Cc2ccccc2)c1=S`, the TGI in experiment [1] was greater than 100 µM; in experiment [2] it was greater than 100 µM; in experiment [3] it was greater than 100 µM; in experiment [4], greater than 100 µM; in experiment [5], greater than 100 µM; in experiment [6] it was greater than 95.2 µM. Also, the TGI in experiment [7], in experiment [8] and in [9] was greater than 100 µM throughout.

Take `COc1ccc(/C=C2\CC3C4CC=C5C[C@@H](O)CC[C@]5(C)C4CC[C@]3(C)\C2=N\O)cc1OC` (stereo partly drawn): the TGI in experiment [1], in experiment [2], in experiment [3], in experiment [4], in [5] and in [6] was greater than 100 µM throughout. Also, the TGI in experiment [7] was 9.97 µM; in experiment [8], greater than 100 µM; in [9] it was greater than 100 µM.

`C=C1C(=O)O[C@H]2C/C(C)=C/CC/C(C)=C/CC[C@@](C)(O)[C@@H](I)C[C@@H]12`: the TGI in experiment [1] is 29.8 µM; in experiment [2], 13.2 µM; in experiment [3] it was 20.8 µM; in experiment [4] it was 12.3 µM; in [5], 26.9 µM; in experiment [6], 25.1 µM. For the same compound, the TGI in [7] stood at 24.5 µM; in [8] it was 23.2 µM; in [9], 32.1 µM.

Consider `COc1ccc2c(c1)nc1n2C(N)=Nc2ccccc2S1`, for which the TGI in experiment [1] is greater than 100 µM; in experiment [2] it was greater than 78.3 µM; in experiment [3], greater than 100 µM; in experiment [4], greater than 100 µM; in experiment [5] it was greater than 100 µM; in [6], greater than 100 µM. Moreover, the TGI in experiment [7] is greater than 100 µM; in experiment [8], greater than 100 µM; in [9] it was greater than 92.3 µM.
